Laboratory results from patent US20110065760A1, “COMPOUNDS FOR THE INHIBITION OF ROTAMASES AND USE THEREOF” (Jerini AG, priority 2002, published 2011).
pIC50: −log10 of the molar value.

Key:
hPin1 = hPin1 (Homo sapiens, UniProt Q13526); test: protease-coupled PPIase assay, hPin1; type: biochemical; conditions: 6 nM hPin1, substrate Ac-Ala-Ala-Ser(PO3H2)-Pro-Arg-pNA, trypsin, pH 7.8, 6° C.; read-out: IC50 class, Target T-1 (hPin1)
EcParvulin = EcParvulin (Escherichia coli, UniProt P0A9L5); test: protease-coupled PPIase assay, EcParvulin; type: biochemical
Papain = target: T1, Papain (Carica papaya, UniProt P00784); test: papain assay; type: biochemical; conditions: 16 μg/ml papain, 2 mM Bz-DL-Arg-pNA, pH 6.5, 30° C., 30 min incubation; read-out: IC50 class, Target T-6 (Papain)
T1 sequence (P00784 134-345): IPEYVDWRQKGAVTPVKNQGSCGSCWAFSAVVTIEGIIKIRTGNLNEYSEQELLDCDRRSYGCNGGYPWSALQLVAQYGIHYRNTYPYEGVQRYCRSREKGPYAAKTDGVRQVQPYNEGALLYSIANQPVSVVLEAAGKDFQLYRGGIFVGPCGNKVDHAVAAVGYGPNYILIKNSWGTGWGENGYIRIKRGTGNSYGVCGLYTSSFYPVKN
Summary of the method: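 Enzyme pre-incubated 30 min with 1-100 μM compound at 30° C, then pNA substrate added; 4-nitroaniline release read at 390 nm. Trypsin: 0.1 μg/ml, 120 μM Ac-Ala-Ala-Ser(PO3H2)-Pro-Arg-pNA, HEPES pH 7.8; cathepsin B: 0.2 μg/ml, 2 mM Z-Arg-Arg-pNA, phosphate/EDTA/Brij 35 pH 5.8; papain: 16 μg/ml, 2 mM Bz-DL-Arg-pNA, phosphate/L-Cys/EDTA pH 6.5.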

Trypsin = target: T2, Trypsin (UniProt P00760); test: trypsin assay; type: biochemical; conditions: 0.1 μg/ml trypsin, 120 μM Ac-Ala-Ala-Ser(PO3H2)-Pro-Arg-pNA, pH 7.8, 30° C., 30 min incubation; read-out: IC50 class, Target T-7 (Trypsin)
T2 sequence (P00760 1-246): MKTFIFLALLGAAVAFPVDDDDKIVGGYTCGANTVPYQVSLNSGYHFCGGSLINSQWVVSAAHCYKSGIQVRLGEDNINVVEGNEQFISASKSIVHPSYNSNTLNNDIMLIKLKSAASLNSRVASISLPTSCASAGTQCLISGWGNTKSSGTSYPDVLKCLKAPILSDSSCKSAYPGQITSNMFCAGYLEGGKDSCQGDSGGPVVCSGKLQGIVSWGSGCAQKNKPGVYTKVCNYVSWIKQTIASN
Experimental: In order to investigate the impact of some of the inventive compounds on the activity of key proteases the following assay was performed: Protease activities were measured spectrophotometrically at 30° C. according to Schomburg and Salzmann (Schomburg, B.; Salzmann M. GBF: Enzyme Handbook. Springer Verlag, Berlin Heidelberg, 1991) and Bergmeyer et al. (Bergmeyer, H. U.; Bergmeyer, J.; Graβl, M. Methods of Enzymatic Analysis, Vol. V Enzymes 3: Peptides, Proteinases and Their Inhibitors. pp 55-371, VCH, Weinheim, 1988). The release of 4-nitroaniline was determined at 390 nm with a Spectramax Plus UV/Vis spectrophotometer (Molecular Devices). The cathepsin B assay was performed in a reaction mixture containing 0.2 μg/ml cathepsin B, 2 mM Z-Arg-Arg-pNA in 88 mM KH2PO4, 12 mM Na2HPO4, 1.33 mM EDTA, 0.03% Brij 35 (pH 5.8). The trypsin assay was carried out in a reaction mixture containing 0.1 μg/ml trypsin and 120 μM Ac-Ala-Ala-Ser(PO3H2)-Pro-Arg-pNA in 35 mM HEPES (pH 7.8) and the papain assay in a mixture consisting of 16 μg/ml papain and 2 mM Bz-DL-Arg-pNA in 10 mM Na2HPO4, 2 mM L-Cys, 5 mM EDTA (pH 6.5). In general, reactions were started by addition of peptide substrate after a 30 min incubation of 1-100 μM effector with given concentrations of enzyme.

[1] = WST-1 cytotoxicity assay, HL-60; type: cell-based; conditions: human, HL-60 cells (acute myeloid leukemia); WST-1, 48 h incubation; read-out: EC50 class, cytotoxic effect, CL-1 (HL-60)
Summary of the method: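 Human tumour cell lines in culture were exposed to compounds at 37° C for 48 h, then given WST-1. Viability was read as formazan absorbance at (450 vs. 620) nm.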

[2] = WST-1 cytotoxicity assay, Caco-2; type: cell-based; conditions: human, Caco-2 cells (colon adenocarcinoma); WST-1, 48 h incubation; read-out: EC50 class, cytotoxic effect, CL-4 (Caco-2)
Experimental: For this cytotoxic evaluation of the compounds the commercial available WST-1 assay (Roche) was used according to the manufacturer's instructions. The assay is based on the cleavage of the tetrazolium salt WST-1 by mitochondrial dehydrogenases found in viable cells. In general compounds were added to cells cultured in 96-well plates at 37° C. After 48 h of incubation 10 μl of WST-1 solution was added. The formazan dye was analyzed with an ELISA plate reader at (450 vs. 620) nm. CL-1: human acute myeloid leukemia, HL-60 CL-2: human cervix carcinoma, HeLa CL-3: human prostate carcinoma, PC-3 CL-4: human colon adenocarcinoma, Caco-2 CL-5: human breast adenocarcinoma, MCF-7

Hela cells = test: DAPI staining; type: cell-based, human; conditions: FIG. 3
Experimental: Hela cells grown on poly-L-Lys-coated coverslips were fixed with 2% paraformaldehyde/MeOH.
Cellular DNA was stained with DAPI staining buffer (100 mM Tris (pH 7.4), 150 mM NaCl, 1 mM CaCl2, 0.5 mM MgCl2, 0.1% nonidet P-40, 1 μg/ml DAPI (Molecular Probes)). All the steps were performed at room temperature, and cells were washed two times with PBS after each step. Finally, cells were mounted in 80% glycerol/PBS.

[3] = system: cyclin D1 in MCF-7 and HeLa cells; test: Cyclin D1 down regulation (western blot marker analysis); type: cell-based, human
Experimental: MCF-7 (5×10^5 cells/well) and HeLa cells (1.5×10^5 cells/well) were seeded in 6-well plates and incubated at 37° C. over night. Compounds or DMSO (final solvent concentration 0.1%) were added to the cells and incubated for different times as indicated. Subsequently, cells were lysed in RIPA buffer for 30 min on ice and centrifuged for 20 min at 4° C. After addition of electrophoresis sample buffer (4×) and 50 mM DTT to the supernatant, samples were boiled for 4 min at 95° C. Samples (equivalent to 2×10^5 cells/well) were run on a 15% SDS gel followed by blotting onto PVDF membrane.
The membrane was blocked for 1 h in 10 mM Tris (pH 7.5), 100 mM NaCl, 0.1% Tween-20 and 5% non-fat dry milk (blocking buffer) and incubated for 1 h with mouse anti-hCyclin D1 monoclonal antibody (clone DCS-6, BD Biosciences) diluted to 1 μg/ml in blocking buffer. Blots were washed 3×10 min with 10 mM Tris (pH 7.5), 100 mM NaCl, 0.1% Tween-20 (washing buffer) and incubated with 0.7 μg/ml peroxidase-conjugated sheep anti-mouse IgG (Sigma) in blocking buffer for 1 h. After washing 3×10 min with washing buffer, the plot was developed with the ECL+ detection kit (Amersham Biosciences).

Chain of EcParvulin (P0A9L5 whole entry): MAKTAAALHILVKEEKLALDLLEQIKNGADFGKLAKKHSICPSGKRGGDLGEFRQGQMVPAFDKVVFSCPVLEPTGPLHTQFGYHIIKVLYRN
Chain of hPin1 (Q13526 whole entry): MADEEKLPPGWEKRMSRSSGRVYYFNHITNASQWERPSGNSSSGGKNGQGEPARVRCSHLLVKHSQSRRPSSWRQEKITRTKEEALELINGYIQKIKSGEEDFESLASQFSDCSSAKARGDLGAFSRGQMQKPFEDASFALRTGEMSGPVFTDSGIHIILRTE

## Cc1c(Cl)cc(NC(=O)NC(C)(C)CC(C)(C)C)c(O)c1Cl [Compound 102]
hPin1
  pIC50: 5.00 to 6.00
EcParvulin
  pIC50: 5.00 to 6.00
Papain
  pIC50: 4.00 to 4.30
Trypsin
  pIC50: 4.30 to 5.00
[1]
  EC50 at 48 h: < 10 µM
[2]
  EC50 at 48 h: < 10 µM
Hela cells
  induction of apoptosis (DAPI staining, fluorescence microscopy): induce apoptosis
[3]
  cyclin D1 down regulation: particular relevance
